Test results as given in the supplement of paper PMC7017272.
± gives the standard deviation of the averaged measurements.

Key:
Conditions in all cases: treatment time: 3 days
[1] = tested on: UT-SCC-81; test: relative IC50 (midpoint of the fitted curve; maximal inhibition may be below 50%); higher = less potent
In short: (§1)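 Using 384-well plates, 500 cells/well of HPV-negative HNSCC cell lines were grown on plastic, on 500 µg/mL Matrigel or Myogel coatings, or embedded in Matrigel or Myogel with rat collagen I. They were treated with compounds at five 10-fold concentrations for 3 days, and luminescence from CellTiter-Glo 2.0 was normalised to vehicle (0.1% DMSO) and cell-killing control wells. IC50, maximal inhibition and drug sensitivity score were derived from percent-inhibition dose–response curves in the FIMM pipeline.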

[2] = tested on: UT-SCC-28; test: as above
In short: as §1

[3] = tested on: UT-SCC-24B; test: as above
In short: as §1

[4] = tested on: UT-SCC-42A; test: as above
In short: as §1

[5] = tested on: UT-SCC-14; test: as above
In short: as §1

[6] = tested on: UT-SCC-81; test: maximal % inhibition of viability relative to DMSO; higher = stronger effect
Description: (§2)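 HNSCC cell lines (500 cells/well, 384-well) were cultured on plastic, on top of (2D) or embedded (3D) in Matrigel or human leiomyoma matrix Myogel (500 ug/mL; Myogel 3D mixed with rat collagen I). Cells were treated for 3 days with 5 ten-fold concentrations of each drug, and viability was read by CellTiter-Glo. Viability was normalised to DMSO and benzethonium chloride controls and fitted with the FIMM DSRT pipeline to give IC50 (nM), maximal % inhibition and DSS. Suffixes _1/_2/_3 are replicates. Only inhibition-mode (IC50) fits are kept.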

[7] = tested on: UT-SCC-106A; test: as above
Description: as §2

[8] = tested on: UT-SCC-40; test: as above
Description: as §2

[9] = tested on: UT-SCC-28; test: as above
Description: as §2

[10] = tested on: UT-SCC-42B; test: as above
Description: as §2

[11] = tested on: UT-SCC-24B; test: as above
Description: as §2

[12] = tested on: UT-SCC-73; test: as above
Description: as §2

[13] = tested on: UT-SCC-42A; test: as above
Description: as §2

[14] = tested on: UT-SCC-14; test: as above
Description: as §2

[15] = tested on: UT-SCC-8; test: as above
Description: as §2

[16] = tested on: UT-SCC-44; test: as above
Description: as §2

[17] = culture condition: embedded in Myogel + collagen I
[18] = culture condition: on top of Matrigel
[19] = culture condition: on top of Myogel
[20] = culture condition: plastic 2D (no matrix)
[21] = culture condition: embedded in Matrigel

## CO[C@H]1C[C@@H]2CC[C@@H](C)[C@@](O)(O2)C(=O)C(=O)N2CCCC[C@H]2C(=O)O[C@H]([C@H](C)C[C@@H]2CC[C@@H](O)[C@H](OC)C2)CC(=O)[C@H](C)/C=C(\C)[C@@H](O)[C@@H](OC)C(=O)[C@H](C)C[C@H](C)/C=C/C=C/C=C/1C [Sirolimus]
[1]; [17]
  relative IC50: 2.71 nM
[1]; [18]
  relative IC50: 1.95 nM
[1]; [19]
  relative IC50: 1.55 nM
[1]; [20]
  relative IC50: 1.4 nM
[2]; [21]
  relative IC50: 2.04 nM
[2]; [18]
  relative IC50: 1.16 nM
[2]; [20]
  relative IC50: 1.2 nM
[3]; [21]
  relative IC50: 0.965 nM
[3]; [19]
  relative IC50: 2.6 nM
[3]; [20]
  relative IC50: 2.95 nM
[4]; [17]
  relative IC50: 3.22 nM
[4]; [18]
  relative IC50: 2.37 nM
[4]; [19]
  relative IC50: 2.33 nM
[4]; [20]
  relative IC50: 2.24 nM
[5]; [21]
  relative IC50: 0.687 nM
[5]; [17]
  relative IC50: 0.9 nM
[5]; [18]
  relative IC50: 1.24 nM
[5]; [19]
  relative IC50: 1.06 nM
[6]; [21]
  maximal % inhibition of viability: 89.7 ± 3.3%
[6]; [17]
  maximal % inhibition of viability: 80 ± 4.9%
[6]; [18]
  maximal % inhibition of viability: 82.1 ± 1.4%
[6]; [19]
  maximal % inhibition of viability: 77.3 ± 1.9%
[6]; [20]
  maximal % inhibition of viability: 78.8 ± 3.2%
[7]; [21]
  maximal % inhibition of viability: 53.1 ± 13%
[7]; [17]
  maximal % inhibition of viability: 35.2 ± 3%
[7]; [18]
  maximal % inhibition of viability: 52.9 ± 3.1%
[7]; [19]
  maximal % inhibition of viability: 41.1 ± 1.3%
[7]; [20]
  maximal % inhibition of viability: 57.3 ± 2.8%
[8]; [21]
  maximal % inhibition of viability: 91.7 ± 5%
[8]; [17]
  maximal % inhibition of viability: 92 ± 2%
[8]; [18]
  maximal % inhibition of viability: 86.8 ± 0.91%
[8]; [19]
  maximal % inhibition of viability: 75.6 ± 0.97%
[8]; [20]
  maximal % inhibition of viability: 79.1 ± 2.9%
[9]; [21]
  maximal % inhibition of viability: 35 ± 13%
[9]; [17]
  maximal % inhibition of viability: 57.3 ± 1.4%
[9]; [18]
  maximal % inhibition of viability: 43.7 ± 4.2%
[9]; [20]
  maximal % inhibition of viability: 34.8 ± 4.6%
[10]; [21]
  maximal % inhibition of viability: 85 ± 3.7%
[10]; [18]
  maximal % inhibition of viability: 76.5 ± 1.4%
[10]; [19]
  maximal % inhibition of viability: 76.5 ± 1.6%
[10]; [20]
  maximal % inhibition of viability: 74.1 ± 2.6%
[11]; [21]
  maximal % inhibition of viability: 93.17 ± 0.71%
[11]; [17]
  maximal % inhibition of viability: 93.9 ± 1.8%
[11]; [18]
  maximal % inhibition of viability: 91.5 ± 0.2%
[11]; [19]
  maximal % inhibition of viability: 91.1 ± 2.1%
[11]; [20]
  maximal % inhibition of viability: 90.4 ± 1.4%
[12]; [21]
  maximal % inhibition of viability: 84.6 ± 1.5%
[12]; [17]
  maximal % inhibition of viability: 78.8 ± 4.7%
[12]; [18]
  maximal % inhibition of viability: 83.3 ± 2.9%
[12]; [19]
  maximal % inhibition of viability: 80.27 ± 0.76%
[12]; [20]
  maximal % inhibition of viability: 79.8 ± 1.5%
[13]; [21]
  maximal % inhibition of viability: 66.8 ± 8.8%
[13]; [17]
  maximal % inhibition of viability: 52.5 ± 2.1%
[13]; [18]
  maximal % inhibition of viability: 64.7 ± 1.1%
[13]; [19]
  maximal % inhibition of viability: 61.33 ± 0.42%
[13]; [20]
  maximal % inhibition of viability: 55.5 ± 0.36%
[14]; [21]
  maximal % inhibition of viability: 73.1 ± 6.3%
[14]; [17]
  maximal % inhibition of viability: 60.2 ± 7.8%
[14]; [18]
  maximal % inhibition of viability: 70.8 ± 8.7%
[14]; [19]
  maximal % inhibition of viability: 66.2 ± 9%
[14]; [20]
  maximal % inhibition of viability: 64.4 ± 6.4%
[15]; [21]
  maximal % inhibition of viability: 96.37 ± 0.95%
[15]; [17]
  maximal % inhibition of viability: 94.2 ± 1.6%
[15]; [18]
  maximal % inhibition of viability: 95.77 ± 0.31%
[15]; [19]
  maximal % inhibition of viability: 94.7 ± 0.35%
[15]; [20]
  maximal % inhibition of viability: 95.07 ± 0.45%
[16]; [21]
  maximal % inhibition of viability: 48.7 ± 9.5%
[16]; [17]
  maximal % inhibition of viability: 72.6 ± 1.9%
[16]; [18]
  maximal % inhibition of viability: 61 ± 2.4%
[16]; [19]
  maximal % inhibition of viability: 72.5 ± 1.7%
[16]; [20]
  maximal % inhibition of viability: 72.3 ± 3.1%
